Measured values as given in patent US20250282735A1, “BICYCLE COMPOUNDS AS TEAD INHIBITOR” (DONG-A ST CO., LTD., priority 2022, published 2025).

Legend:
Type in all cases: cell-based
[1] = test system: TEAD reporter-containing human breast cancer cell line MCF7; assay: TEAD reporter (luciferase) assay; conditions: TEAD reporter MCF7 cells, 24 hours treatment, 1% serum media
Protocol: The TEAD reporter-containing human breast cancer cell line MCF7 (60618, BPS bioscience) was cultured according to the manufacturer's instructions. Cells were plated in 96-well white plates at a density of 30,000 per well and incubated overnight. The following day cells were treated with small molecules in 1% serum media (0.1% v/v DMSO). After 24 hours of the treatment, cell viability was evaluated by using CCK-8 reagent (CK04, Dojindo) and measuring absorbance at 450 nm. Then, the assay for luciferase activity was performed using Dual-Glo® Luciferase Assay System (Promega, E2940) following the manufacturer's instructions. Luminescence intensity was measured and the potency of the compounds was determined by IC50 value generated from non-linear regression analysis of the dose-response curves.
IC50 for luciferase activity are shown in the Table 1 below and designated within the following ranges. [+++: ≤0.1 μM, ++: >0.1 μM to ≤1 μM, +: >1 μM to ≤10 μM, −: >10 μM]

MSTO-211H cells = assay: Proliferation assay (EdU incorporation), MSTO-211H; conditions: Homo sapiens, 72 h, YAP-driven MSTO-211H (LATS1 mutation), 3 days with inhibitor, 1% serum
Protocol: (§1) The anti-proliferative activity of TEAD inhibitors was evaluated in cells with different properties for YAP; “YAP-driven” cells (MSTO-211H, NCI-H226) in which YAP located in the nucleus and “YAP-independent” cells (OCM1, NCI-H28) where YAP located in the cytoplasm. […] TEAD inhibitors were evaluated with cell lines with these YAP profiling and mutational status.
(§2) The next day, replace it with cell starvation medium containing 1% serum. After one day of growth in the starvation medium, the cells were incubated for 3 days with TEAD inhibitors in a concentration range of 0.01-10 μM. After 3 days, EdU (Invitrogen) at a concentration of 10 µM was added to the starvation medium and incubated for an additional 24 hours. After removing the starvation medium remaining in each well, wash the wells with PBS. Cells were fixed with 4% paraformaldehyde (Electron microscopy sciences) at room temperature for 20 minutes. After removing the fix solution remaining in each well, wash the wells with PBS and the cells were permeabilized for 40 minutes by adding 0.5% triton X-100 (Sigma Aldrich). After removing the permeabilization solution remaining in each well, the EdU labeling was performed according to the instructions of the manufacturer's instructions (Click-iT™ Cell Reaction Buffer Kit, Invitrogen). After the Click reaction for EdU labeling, nuclei were stained with […] (Thermo Scientific) for total cell count analysis. After plate preparation for detection, Image acquisition was performed using the ImageXpress Micro XLS. The acquired images were analyzed using MetaXpress software (molecular devices). Through this experimental method, it was possible to confirm the inhibitory activity of TEAD inhibitors by detection EdU incorporated into proliferating cells.
(§3) IC50 for cell proliferation inhibition activity are shown in the Table 2 below and designated within the following ranges. [+++: ≤0.1 μM, ++: >0.1 μM to ≤1 μM, +: >1 μM to ≤10μ, −: >10 μM]

NCI-H226 cells = assay: Proliferation assay (EdU incorporation), NCI-H226; conditions: Homo sapiens, 72 h, YAP-driven NCI-H226 (NF2 mutation), 3 days with inhibitor, 1% serum
Protocol: as §1, §2, §3

| IC50 [1] [nM] | IC50 (NCI-H226 cells) [nM] | SMILES | IC50 (MSTO-211H cells) [nM] |
| --- | --- | --- | --- |
| ≤ 100 | ≤ 100 | C=CC(=O)Nc1ccc2c(c1)c(/C=C/C1CCC(F)(F)CC1)nn2C [Compound 1, (E)-N-(3-(2-(4,4-Difluorocyclohexyl)vinyl)-1-methyl-1H-indazol-5-yl)acrylamide] | 100 to 1000 |
| 100 to 1000 | ≤ 100 | C=CC(=O)Nc1ccc2c(c1)c(/C=C/c1ccc(Cl)cc1)nn2C [Compound 2, (E)-N-(3-(4-Chlorostyryl)-1-methyl-1H-indazol-5-yl)acrylamide] | ≤ 100 |
| ≤ 100 | 100 to 1000 | C=CC(=O)Nc1ccc2c(c1)c(/C=C/C1CCC(F)(F)CC1)nn2CC [Compound 3, (E)-N-(3-(2-(4,4-Difluorocyclohexyl)vinyl)-1-ethyl-1H-indazol-5-yl)acrylamide] | ≤ 100 |
| > 10000 | ≤ 100 | C=CC(=O)Nc1ccc2c(c1)c(/C=C/c1ccc(Cl)cc1)nn2CC [Compound 4, (E)-N-(3-(4-Chlorostyryl)-1-ethyl-1H-indazol-5-yl)acrylamide] | ≤ 100 |
| ≤ 100 | ≤ 100 | C=CC(=O)Nc1cnc2c(c1)c(/C=C/C1CCC(F)(F)CC1)cn2C [Compound 15, (E)-N-(3-(2-(4,4-Difluorocyclohexyl)vinyl)-1-methyl-1H-pyrrolo[2,3-b]pyridin-5-yl)acrylamide] | ≤ 100 |
|  | ≤ 100 | C=CC(=O)Nc1cnc2c(c1)c(/C=C/C1CCC(F)(F)CC1)cn2CC [Compound 17, (E)-N-(3-(2-(4,4-Difluorocyclohexyl)vinyl)-1-ethyl-1H-pyrrolo[2,3-b]pyridin-5-yl)acrylamide] | 100 to 1000 |
| ≤ 100 |  | C=CC(=O)Nc1ccc2c(c1)c(C1=CCC(F)(F)CC1)cn2C [Compound 23, N-(3-(4,4-Difluorocyclohex-1-en-1-yl)-1-methyl-1H-indol-5-yl)acrylamide] | 100 to 1000 |
| 100 to 1000 |  | C=CC(=O)Nc1ccc2c(c1)c(/C=C/c1ccc(Cl)cc1)cn2CC [Compound 26, (E)-N-(3-(4-Chlorostyryl)-1-ethyl-1H-indol-5-yl)acrylamide] | 100 to 1000 |
| 100 to 1000 |  | C=CC(=O)Nc1ccc2c(c1)c(/C=C/C1CCC(F)(F)CC1)cn2C(C)C [Compound 27, (E)-N-(3-(2-(4,4-Difluorocyclohexyl)vinyl)-1-isopropyl-1H-indol-5-yl)acrylamide] | 100 to 1000 |
| ≤ 100 |  | C=CC(=O)Nc1cnc2c(c1)c(/C=C/C1CCC(F)(F)CC1)nn2CC [Compound 32, (E)-N-(3-(2-(4,4-Difluorocyclohexyl)vinyl)-1-ethyl-1H-pyrazolo[3,4-b]pyridin-5-yl)acrylamide] | 100 to 1000 |
| 1000 to 10000 |  | C=CC(=O)Nc1cnc2c(c1)c(/C=C/c1ccc(Cl)cc1)nn2CC [Compound 33, (E)-N-(3-(4-Chlorostyryl)-1-ethyl-1H-pyrazolo[3,4-b]pyridin-5-yl)acrylamide] | ≤ 100 |
| ≤ 100 |  | C=CC(=O)Nc1cnc2c(c1)c(/C=C/C1CCC(F)(F)CC1)nn2C(C)C [Compound 34, (E)-N-(3-(2-(4,4-Difluorocyclohexyl)vinyl)-1-isopropyl-1H-pyrazolo[3,4-b]pyridin-5-yl)acrylamide] | 100 to 1000 |
| 100 to 1000 |  | C=CC(=O)Nc1cnc2c(c1)c(/C=C/c1ccc(Cl)cc1)nn2C(C)C [Compound 35, (E)-N-(3-(4-Chlorostyryl)-1-isopropyl-1H-pyrazolo[3,4-b]pyridin-5-yl)acrylamide] | 100 to 1000 |
| 100 to 1000 |  | C=CC(=O)Nc1cc(F)c2c(c1)c(/C=C/C1CCC(F)(F)CC1)cn2C [Compound 36, (E)-N-(3-(2-(4,4-Difluorocyclohexyl)vinyl)-7-fluoro-1-methyl-1H-indol-5-yl)acrylamide] | ≤ 100 |
| 100 to 1000 |  | C=CC(=O)Nc1cc(F)c2c(c1)c(/C=C/c1ccc(Cl)cc1)cn2C [Compound 37, (E)-N-(3-(4-Chlorostyryl)-7-fluoro-1-methyl-1H-indol-5-yl)acrylamide] | ≤ 100 |
|  | ≤ 100 | C=CC(=O)Nc1cnc2c(c1)c(/C=C/c1ccc(F)cc1)cn2C [Compound 47, (E)-N-(3-(4-Fluorostyryl)-1-methyl-1H-pyrrolo[2,3-b]pyridin-5-yl)acrylamide] | ≤ 100 |
| 1000 to 10000 |  | C=CC(=O)Nc1cnc2c(c1)c(-c1ccc(C(F)(F)F)cc1)cn2C [Compound 51, N-(1-Methyl-3-(4-(trifluoromethyl)phenyl)-1H-pyrrolo[2,3-b]pyridin-5-yl)acrylamide] | ≤ 100 |
| ≤ 100 |  | C=CC(=O)Nc1cnc2c(c1)c(CCC1CCC(F)(F)CC1)cn2C [Example 64, N-(3-(2-(4,4-Difluorocyclohexyl)ethyl)-1-methyl-1H-pyrrolo[2,3-b]pyridin-5-yl)acrylamide] | ≤ 100 |
| 1000 to 10000 |  | Cn1cc(/C=C/c2ccc(Cl)cc2)c2cc(NC(=O)CCl)cnc21 [Example 70, (E)-2-Chloro-N-(3-(4-chlorostyryl)-1-methyl-1H-pyrrolo[2,3-b]pyridin-5-yl) acetamide] | 1000 to 10000 |
| 100 to 1000 |  | C=CC(=O)Nc1cnc2c(c1)c(/C=C/c1ccc(Cl)s1)cn2C [Example 81, (E)-N-(3-(2-(5-Chlorothiophen-2-yl)vinyl)-1-methyl-1H-pyrrolo[2,3-b]pyridin-5-yl)acrylamide] | ≤ 100 |
| 100 to 1000 |  | C=CC(=O)Nc1cnc2c(c1)c(-c1cccc(/C=C/C3CCC(F)(F)CC3)c1)cn2C [Example 85, (E)-N-(3-(3-(2-(4,4-Difluorocyclohexyl)vinyl)phenyl)-1-methyl-1H-pyrrolo[2,3-b]pyridin-5-yl)acrylamide] | 100 to 1000 |
| 100 to 1000 |  | C=CC(=O)Nc1cnc2c(c1)c(-c1ccc(C3CC3)cc1)cn2C [Example 106, N-(3-(4-Cyclopropylphenyl)-1-methyl-1H-pyrrolo[2,3-b]pyridin-5-yl)acrylamide] | ≤ 100 |
| ≤ 100 |  | C=CC(=O)Nc1cnc2c(c1)c(-c1ccc3ccccc3c1)cn2C [Example 107, N-(1-Methyl-3-(naphthalen-2-yl)-1H-pyrrolo[2,3-b]pyridin-5-yl)acrylamide] | ≤ 100 |
| 100 to 1000 |  | C=CC(=O)Nc1cnc2c(c1)c(-c1ccc(SCC)cc1)cn2C [Example 111, N-(3-(4-(Ethylthio)phenyl)-1-methyl-1H-pyrrolo[2,3-b]pyridin-5-yl)acrylamide] | ≤ 100 |
| 1000 to 10000 |  | C=C(F)C(=O)Nc1cnc2c(c1)c(/C=C/c1ccc(Cl)cc1)cn2C [Example 118, (E)-N-(3-(4-Chlorostyryl)-1-methyl-1H-pyrrolo[2,3-b]pyridin-5-yl)-2-fluoroacrylamide] | ≤ 100 |
| 100 to 1000 |  | [2H]C([2H])([2H])n1cc(/C=C/c2ccc(Cl)cc2)c2cc(NC(=O)C=C)cnc21 [Example 121, (E)-N-(3-(4-Chlorostyryl)-1-(methyl-d3)-1H-pyrrolo[2,3-b]pyridin-5-yl)acrylamide] | ≤ 100 |
| ≤ 100 |  | C=CC(=O)Nc1ccc2c(c1)c(C1CCC(C)(C)CC1)cn2C [Example 122, N-(3-(4,4-dimethylcyclohexyl)-1-methyl-1H-indol-5-yl)acrylamide] | 100 to 1000 |
|  | 100 to 1000 | C=CC(=O)Nc1cnc2c(c1)c(/C=C/c1ccc(Cl)cc1)cn2C(F)F [Example 128, (E)-N-(3-(4-Chlorostyryl)-1-(difluoromethyl)-1H-pyrrolo[2,3-b]pyridin-5-yl)acrylamide] | 100 to 1000 |
| 100 to 1000 |  | C=CC(=O)Nc1cnc2c(c1)c(/C=C/C1CCC(F)(F)CC1)cn2C(F)F [Example 130, (E)-N-(3-(2-(4,4-Difluorocyclohexyl)vinyl)-1-(difluoromethyl)-1H-pyrrolo[2,3-b]pyridin-5-yl)acrylamide] | 100 to 1000 |
| 1000 to 10000 |  | C=CC(=O)Nc1cnc2c(c1)c(-c1ccc(Cl)cc1)cn2C(F)F [Example 132, N-(3-(4-Chlorophenyl)-1-(difluoromethyl)-1H-pyrrolo[2,3-b]pyridin-5-yl)acrylamide] | 100 to 1000 |
